Results on 24 compounds are retold here after ChEMBL document CHEMBL1130090, “Antitumor agents. 174. 2',3',4',5,6,7-Substituted 2-phenyl-1,8-naphthyridin-4-ones: their synthesis, cytotoxicity, and inhibition of tubulin polymerization” (J Med Chem, 1997).

The term IC50 denotes the midpoint of a concentration-inhibition curve.

Common to all, as to assay type: functional
Assay [1] deals with 786-0. Description: Concentration which reduced cell growth to 50 % of level against 786-0 renal cancer line. Particulars: Homo sapiens.
The test system of assay [2] is NCI-H460. The experiment in a line: Concentration which reduced cell growth to 50 % of level against NCI-H460 non -small-cell lung cancer cell line. The settings on record: Homo sapiens.
The subject of assay [3] is PC-3. The experiment in a line: Concentration which reduced cell growth to 50 % of level against PC-3 prostate cancer line. Particulars: Homo sapiens.
The subject of assay [4] is HCT-116. Description: Concentration which reduced cell growth to 50 % of level against HCT116 colon cancer cell line. Particulars: Homo sapiens.
Assay [5] has as its system SK-MEL-5. Description: Concentration which reduced cell growth to 50 % of level against SK-MEL-5 melanoma cell line. The settings on record: Homo sapiens.
Assay [6] deals with HL-60. The experiment in a line: Concentration which reduced cell growth to 50 % of level against HL-60 (TB) leukemia cell line. The settings on record: Homo sapiens.
Assay [7] relates to OVCAR-3. Description: Concentration which reduced cell growth to 50 % of level against OVCAR-3 ovarian cancer line. The settings on record: Homo sapiens.
The subject of assay [8] is U-251. Description: Concentration which reduced cell growth to 50 % of U251 cancer line. Particulars: Homo sapiens.
Assay [9] concerns MDA-MB-435. Description: Concentration which reduced cell growth to 50 % of level against MDA-MB-435 breast cancer line. The settings on record: Homo sapiens.
Assay [10] deals with MDA-N. Description: Concentration which reduced cell growth to 50 % of level against MDA-N breast cancer line. Particulars: Homo sapiens.
Assay [11] deals with Tumor Cell line. The experiment in a line: Cytotoxic effect in human tumor cell lines, tested by the National Cancer Institute. Particulars: read-out: Average LogGI50 (converted).
Assay [12] relates to SF-295. The experiment in a line: Concentration which reduced cell growth to 50 % of level against SF-295 CNS cancer line. The settings on record: Homo sapiens.
The target in assay [13] is Tubulin beta chain (Bos taurus, UniProt Q6B856). Description: Inhibition of bovine tubulin polymerization.

The structures appear in SMILES notation. Bounds are passed on as bounds.

Tubulin beta chain, sequence (Q6B856 whole entry): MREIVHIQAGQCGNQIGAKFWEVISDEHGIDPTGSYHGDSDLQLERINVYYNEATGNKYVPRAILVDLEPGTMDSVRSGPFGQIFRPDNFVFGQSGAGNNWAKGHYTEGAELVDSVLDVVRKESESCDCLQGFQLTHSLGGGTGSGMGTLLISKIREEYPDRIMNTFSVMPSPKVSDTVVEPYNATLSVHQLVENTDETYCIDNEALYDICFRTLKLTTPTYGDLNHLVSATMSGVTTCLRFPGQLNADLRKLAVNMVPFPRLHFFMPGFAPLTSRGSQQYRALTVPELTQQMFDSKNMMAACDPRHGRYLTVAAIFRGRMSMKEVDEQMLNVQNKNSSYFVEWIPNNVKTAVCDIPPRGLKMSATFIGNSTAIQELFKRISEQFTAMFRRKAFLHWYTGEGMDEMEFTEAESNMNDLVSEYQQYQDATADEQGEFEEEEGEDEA

For the compound `Cc1ccc2c(O)cc(-c3ccc(F)cc3)nc2n1`, the GI50 in assay [1] is 41.7 µM; in assay [2], 33.9 µM; in [3], 20.9 µM; in assay [4] it was 33.9 µM; in [5] it was 31.6 µM; in [6], 14.8 µM. Besides, the GI50 is 32.4 µM in assay [7]; 37.2 µM in assay [8]; 5.89 µM in assay [9]; 11.7 µM in [10]; 32.4 µM in assay [11]; 37.2 µM in assay [12]. Besides, in [13], the IC50 is over 40 µM.
As for `Cc1ccnc2nc(-c3ccc(Cl)cc3)cc(O)c12`, the GI50 in assay [1] was 3.98 µM; in assay [2], 3.72 µM; in assay [3], 2.88 µM; in assay [4] it was 3.72 µM; in assay [5], 3.47 µM; in assay [6], 1.78 µM. For the same compound, the GI50 in assay [7] was 3.16 µM; in assay [8] it was 4.57 µM; in [9] it was 0.759 µM; in [10] it was 1.32 µM; in [11], 5.13 µM; in assay [12], 5.37 µM. Besides, the IC50 in [13] came to 4.8 µM.
Compound `Cc1ccc(-c2cc(O)c3c(C)cc(C)nc3n2)cc1` had an IC50 in [13] of 9.8 µM.
`COc1ccc(-c2cc(O)c3c(C)ccnc3n2)cc1`: the GI50 in [1] was 25.1 µM; in assay [2], 6.17 µM; in assay [3] it was 18.2 µM; in [4] it was 6.46 µM; in assay [5], 3.89 µM; in assay [6], 4.37 µM. The GI50 in assay [7] is 13.8 µM; in assay [8] it was 6.31 µM; in assay [9], 2.4 µM; in [10] it was 2.09 µM; in assay [11], 12.9 µM; in assay [12] it was 19.5 µM. The compound also registered an IC50 in assay [13] of 8.8 µM.
On to `Cc1ccc(-c2cc(O)c3c(C)ccnc3n2)cc1`, for which half-maximal inhibition in assay [13] (IC50) required 2.9 µM. That is a single-digit micromolar value.
Regarding `Cc1cnc2nc(-c3ccc(F)cc3)cc(O)c2c1`, the GI50 in assay [1] was 32.4 µM; in assay [2], 33.9 µM; in assay [3] it was 25.7 µM; in assay [4], 24 µM; in [5], 21.9 µM; in [6] it was 2.4 µM. Besides, the GI50 in [7] is 22.4 µM; in [8] it was 25.1 µM; in assay [9], 2.63 µM; in [10] it was 3.02 µM; in assay [11], 26.3 µM; in [12], 29.5 µM. The compound further showed an IC50 in assay [13] of 20 µM.
Take `COc1cccc(-c2cc(O)c3ccc(C)nc3n2)c1`: in assay [13], the IC50 turned out to be 0.75 µM.
In the case of `Oc1cc(-c2ccc(Cl)cc2)nc2ncccc12`, the GI50 in assay [1] is 33.9 µM; in assay [2], 38 µM; in assay [3] it was 47.9 µM; in [4] it was 32.4 µM; in assay [5] it was 28.8 µM; in assay [6], 16.6 µM. Further, the GI50 in [7] is 23.4 µM; in [8] it was 39.8 µM; in assay [9], 5.89 µM; in [10] it was 8.32 µM; in [11], 38.9 µM; in assay [12] it was 40.7 µM. The compound also returned an IC50 in assay [13] of 22 µM.
With `COc1ccc(-c2cc(O)c3ccc(C)nc3n2)cc1`, the GI50 in [1] is over 100 µM; in assay [2], over 100 µM; in assay [3] it was over 100 µM; in [4], over 100 µM; in [5], 47.9 µM; in [6] it was over 100 µM. In addition, the GI50 was over 100 µM in [7]; over 100 µM in assay [8]; 42.7 µM in assay [9]; 55 µM in [10]; 91.2 µM in assay [11]; 89.1 µM in assay [12]. In [13], this compound returned an IC50 of over 40 µM.
Take `COc1cccc(-c2cc(O)c3ccccc3n2)c1`: the GI50 in [1] is 5.13 µM; in assay [2], 3.98 µM; in [6] it was 2.09 µM; in assay [8] it was 9.55 µM; in assay [11], 6.17 µM.
For `COc1cc2c(c(OC)c1OC)-c1ccc(OC)c(=O)cc1[C@@H](NC(C)=O)CC2` [COLCHICINE], the GI50 in [11] was 0.0575 µM.
Take `Oc1cc(-c2ccc(F)cc2)nc2ncccc12`: the GI50 is 44.7 µM in assay [1]; 34.7 µM in [2]; 45.7 µM in assay [3]; 42.7 µM in assay [4]; 30.2 µM in assay [5]; 12.9 µM in assay [6]. For the same compound, the GI50 in assay [7] is 45.7 µM; in assay [8] it was 47.9 µM; in assay [9] it was 12 µM; in assay [10], 14.1 µM; in [11], 45.7 µM; in assay [12], 50.1 µM. In assay [13], the IC50 is over 40 µM.
`COc1ccccc1-c1cc(O)c2cc(C)cnc2n1`: the GI50 is 41.7 µM in [1]; 32.4 µM in assay [2]; 26.9 µM in assay [3]; 42.7 µM in assay [4]; 20.4 µM in [5]; 9.55 µM in [6]. Further, the GI50 in [7] was 19.5 µM; in assay [8], 27.5 µM; in [9], 3.02 µM; in assay [10], 4.47 µM; in assay [11], 31.6 µM; in assay [12], 30.9 µM. For the same compound, half-maximal inhibition in assay [13] (IC50) required 18 µM.
For `COc1ccccc1-c1cc(O)c2c(C)cc(C)nc2n1`, the GI50 is over 100 µM in assay [1]; 70.8 µM in assay [2]; 47.9 µM in assay [3]; 74.1 µM in assay [4]; 33.9 µM in assay [5]; 30.2 µM in assay [6]. Also, the GI50 in [7] is 64.6 µM; in assay [8], over 100 µM; in [9], 32.4 µM; in [10], 33.1 µM; in assay [11] it was 57.5 µM; in [12], 53.7 µM. In assay [13], the IC50 was over 40 µM.
Turning to `COc1ccccc1-c1cc(O)c2cccnc2n1`, the GI50 in assay [1] is 36.3 µM; in assay [2] it was 38.9 µM; in [3] it was 29.5 µM; in assay [4] it was 27.5 µM; in assay [5], 31.6 µM; in assay [6], 38.9 µM. Also, the GI50 was 47.9 µM in [7]; 67.6 µM in assay [8]; 39.8 µM in [9]; 20 µM in assay [10]; 40.7 µM in assay [11]; 23.4 µM in assay [12]. In assay [13], the IC50 is over 40 µM.
For `Oc1cc(-c2ccc(F)cc2)nc2ncc(Cl)cc12`, the GI50 was 32.4 µM in [1]; 30.2 µM in [2]; 21.9 µM in [3]; 17 µM in [4]; 6.61 µM in assay [5]; 3.89 µM in assay [6]. Further, the GI50 in [7] was 17.4 µM; in assay [8], 29.5 µM; in assay [9], 2.57 µM; in [10], 2.95 µM; in assay [11], 21.9 µM; in assay [12], 21.4 µM. In addition, the IC50 in assay [13] was 16 µM.
With `Cc1ccc2c(O)cc(-c3ccc(Cl)cc3)nc2n1`, the GI50 in [1] is 6.31 µM; in [2], 4.47 µM; in assay [3] it was 1.66 µM; in assay [4], 3.31 µM; in assay [5], 4.37 µM; in assay [6], 2.95 µM. For the same compound, the GI50 in assay [7] is 2.57 µM; in [8], 4.79 µM; in assay [9], 0.912 µM; in assay [10] it was 1 µM; in assay [11], 4.9 µM; in [12], 4.57 µM. The compound further gave an IC50 in [13] of 11 µM.
With `Cc1cnc2nc(-c3ccc(Cl)cc3)cc(O)c2c1`, the GI50 in assay [1] is 6.31 µM; in assay [2] it was 3.89 µM; in assay [3] it was 1.15 µM; in assay [4] it was 2.82 µM; in assay [5], 2.19 µM; in assay [6] it was 2.24 µM. The GI50 is 2.24 µM in [7]; 3.02 µM in [8]; 0.603 µM in [9]; 0.562 µM in assay [10]; 3.72 µM in assay [11]; 2.4 µM in [12]. For the same compound, in assay [13], 2 µM corresponded to half-maximal inhibition (IC50).
Take `COc1ccccc1-c1cc(O)c2ccc(C)nc2n1`: the GI50 in assay [1] is over 100 µM; in assay [2], 97.7 µM; in [3] it was over 100 µM; in [4] it was 38 µM; in assay [5] it was 51.3 µM; in [6] it was 74.1 µM. Besides, the GI50 was over 100 µM in assay [7]; over 100 µM in [8]; 21.9 µM in [9]; 20 µM in assay [10]; 79.4 µM in assay [11]; over 100 µM in assay [12]. Besides, the IC50 in [13] was over 40 µM.
Consider `Cc1cc(C)c2c(O)cc(-c3ccc(F)cc3)nc2n1`, for which the GI50 in assay [1] was 79.4 µM; in assay [2] it was 51.3 µM; in [3], 30.2 µM; in assay [4], 50.1 µM; in assay [5], 26.3 µM; in [6] it was 15.5 µM. Besides, the GI50 in [7] is 43.7 µM; in assay [8], 95.5 µM; in assay [9], 18.6 µM; in [10], 25.1 µM; in assay [11] it was 40.7 µM; in assay [12], 50.1 µM. The IC50 in [13] is over 40 µM.
As to `COc1ccc(/C=C\c2cc(OC)c(OC)c(OC)c2)cc1O` [COMBRETASTATIN A4], the GI50 in assay [11] was 0.00661 µM.
Take `Cc1ccc(-c2cc(O)c3cc(C)cnc3n2)cc1`: the midpoint of inhibition in [13], the IC50, lay at 2.4 µM.
In assay [13], `COc1cccc(-c2cc(O)c3cc(Br)cnc3n2)c1` gave an IC50 of 1.5 µM. Against the preceding compound, the IC50 is about 1.6-fold lower.
For `Cc1ccc(-c2cc(O)c3ccc(C)nc3n2)cc1`, the IC50 in assay [13] was 4.9 µM.
